Here are results for 15 molecules from patent US20110301155A1, “INDAZOLE COMPOUNDS FOR ACTIVATING GLUCOKINASE” (priority 2007, published 2011).

Counter-ions that a name gives are not always drawn.

The target in data set [1] is T1, GST-hLGK1 (human liver type GK) (Homo sapiens, UniProt P35557).
T1 construct: made in house; host or cells: Escherichia coli BL21 (pGEX6P-2/hLGK1)
T1 sequence (P35557 1-464 isoform P35557-3): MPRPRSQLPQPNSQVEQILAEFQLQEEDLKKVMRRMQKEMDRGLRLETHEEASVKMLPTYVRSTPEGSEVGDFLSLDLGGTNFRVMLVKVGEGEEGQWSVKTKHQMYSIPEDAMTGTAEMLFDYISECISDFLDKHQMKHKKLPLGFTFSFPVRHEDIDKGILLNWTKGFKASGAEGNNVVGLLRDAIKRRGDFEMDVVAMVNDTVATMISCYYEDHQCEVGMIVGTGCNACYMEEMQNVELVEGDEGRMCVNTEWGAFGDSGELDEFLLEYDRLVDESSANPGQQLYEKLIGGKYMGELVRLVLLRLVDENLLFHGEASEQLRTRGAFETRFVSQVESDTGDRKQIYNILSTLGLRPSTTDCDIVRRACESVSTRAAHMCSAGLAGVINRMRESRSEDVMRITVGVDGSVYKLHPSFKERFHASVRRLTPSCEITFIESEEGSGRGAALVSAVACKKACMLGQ
Description: Determination of GK activity value (fluorescence assay). The class given is biochemical. To be noted: test compound 10 μmol/L, 5 mmol/L D-glucose, reaction rate as percentage of control without compound. As to the method:
Plasmid DNA to be used for the expression of a protein (GST-hLGK1) containing GST (Glutathione S-transferase) added to the amino terminal of human liver type GK in Escherichia coli was prepared as shown below.
BL21 strain (Stratagene) transformed with pGEX6P-2/hLGK1 obtained in Reference Example 1A was cultured with shaking at 37° C. for 14 hr in a 200 ml Erlenmeyer flask containing 50 ml of 100 μg/ml ampicillin-containing LB medium. The culture medium (25 ml) was diluted with 225 ml of 100 μg/ml ampicillin-containing LB medium, and further cultured with shaking at 37° C. for 1 hr in a 1L Erlenmeyer flask. After culture, the Erlenmeyer flask was cooled on ice, 125 μL of 100 mM isopropyl-thio-β-D-galactopyranoside (IPTG) was added (final concentration 50 μM), and cultured at 17° C. for 20 hr. The culture medium was centrifuged, and the obtained fungus was disrupted by ultrasonication. The object protein (GST-hLGK1) was purified from the supernatant using Glutathione Sepharose 4B (Amersham Biosciences. K.K.).
GK enzyme reactions were performed in 50 mmol/L HEPES pH 7.4, 200 mmol/L KCl, 5 mmol/L MgCl2, 2 mmol/L DTT, containing 50 μmol/L 2′-(or-3′)-O-(N-methylanthraniloyl)adenosine 5′-triphosphate (Mant-ATP) (Jena Bioscience GmbH), 5 mmol/L D-glucose, 5% DMSO and 6 μg/mL GST-hLGK1 obtained in Reference Example 2A in a total volume 50 μL. The reactions were performed in 384 well black plates (Nalge Nunc International K.K.). Prior to the reaction, the enzyme and test compound were incubated for 10 min at 37° C., and 25 mM D-glucose solution (10 μL) was added to start the reaction. The final concentration of the test compound is 10 μmol/L. After the incubation for 60 min at 37° C., the reaction was quenched by adding 25 μL of a quenching solution (containing 200 mM HEPES (pH 7.4), 20 mM MgCl2, 200 mM EDTA, 0.03% Triton-X 100, 0.3% Coating 3 reagent (Caliper Life Sciences, Inc.)).
Mant-ATP (substrate, 2′-(or-3′)—O—(N-methylanthraniloyl)adenosine 5′-triphosphate) and Mant-ADP (reaction resultant product) were separated from each well after the reaction by a microchip type capillary electrophoresis apparatus 250 HTS (Caliper Life Sciences, Inc.). The reaction rate [(reaction resultant product peak height)/(reaction resultant product peak height+substrate peak height)×100(%)] was calculated from the ratio of the substrate peak height and reaction resultant product peak height obtained by fluorescence detection (excitation wavelength 355 nm, measurement wavelength 460 nm) and used as the index of GK activity.
As a control group, the reaction rate was calculated in the same manner as above without the test compounds.
The percentage obtained by dividing the reaction rate of the well added with the test compound (test compound addition group) by the reaction rate of the control group was taken as the GK activity value (Emax) of the test compound.

`Clc1cccnc1-c1cc(OCCc2ccccn2)c2[nH]nc(Nc3nccs3)c2c1` [Example 85, 5-(3-chloropyridin-2-yl)-7-(2-pyridin-2-ylethoxy)-N-1,3-thiazol-2-yl-1H-indazole-3-amine] came in with a melting point of 185 to 187 °C. This molecule also yielded a maximal effect (Emax) at 10 µM in data set [1] of 231%.

The molecule `Cn1ccnc1Sc1ccc2[nH]nc(Nc3nccs3)c2c1` [Example 109, 5-[(1-methyl-1H-imidazol-2-yl)thio]-N-1,3-thiazol-2-yl-1H-indazole-3-amine] yielded a melting point of over 250 °C. In addition, in data set [1], the maximal response (Emax) at 10 µM was determined as 218%.

Turning to `COC[C@H](C)Oc1cc(OCCc2ccccn2)c2[nH]nc(Nc3nccs3)c2c1` [Example 108, 5-[(1S)-2-methoxy-1-methylethoxy]-7-(2-pyridin-2-ylethoxy)-N-1,3-thiazol-2-yl-1H-indazole-3-amine dihydrochloride], the Emax at 10 µM in data set [1] stood at 199%.

`Cn1ccc(Nc2n[nH]c3c(OCCc4ccccn4)cc(-c4ncccc4Cl)cc23)n1` [Example 100, 5-(3-chloropyridin-2-yl)-N-(1-methyl-1H-pyrazol-3-yl)-7-(2-pyridin-2-ylethoxy)-1H-indazole-3-amine] had a melting point of 89 to 91 °C. The molecule also gave an Emax at 10 µM in data set [1] of 200%.

`CC(C)Cc1cc(OCC(=O)N(C)C)c2[nH]nc(Nc3nccs3)c2c1` [Example 73, 2-{[5-isobutyl-3-(1,3-thiazol-2-ylamino)-1H-indazole-7-yl]oxy}-N,N-dimethylacetamide]: the melting point fell in the range of 96 to 98 °C. In data set [1], the Emax at 10 µM was 111%.

`COC[C@H](C)Oc1cc(OCCc2ccccn2)c2[nH]nc(Nc3nccs3)c2c1` (as salt: hydrochloride) [Example 108, 5-[(1S)-2-methoxy-1-methylethoxy]-7-(2-pyridin-2-ylethoxy)-N-1,3-thiazol-2-yl-1H-indazole-3-amine dihydrochloride] had a melting point of 150 to 153 °C.

In the case of `Cn1ccc(Nc2n[nH]c3c(Oc4ccc(S(C)(=O)=O)cc4)cc(-c4ncccc4Cl)cc23)n1` [Example 105, 5-(3-chloropyridin-2-yl)-N-(1-methyl-1H-pyrazol-3-yl)-7-[4-(methylsulfonyl)phenoxy]-1H-indazole-3-amine], the Emax at 10 µM in data set [1] amounted to 140%.

Turning to `CC(C)Cc1cc(OCCc2ccsc2)c2[nH]nc(Nc3nccs3)c2c1` [Example 72, 5-isobutyl-N-1,3-thiazol-2-yl-7-[2-(3-thienyl)ethoxy]-1H-indazole-3-amine], the melting point was in the range of 150 to 151 °C. The molecule also came in with an Emax at 10 µM in data set [1] of 194%.

With `CCCc1cc(-c2cc3ccccc3s2)c2[nH]nc(Nc3nccs3)c2c1` [Example 28, 7-(1-benzothien-2-yl)-5-propyl-N-1,3-thiazol-2-yl-1H-indazole-3-amine], the Emax at 10 µM in data set [1] worked out at 231%.

For the molecule `CC(C)S(=O)(=O)c1cc(OCCc2ccccn2)c2[nH]nc(Nc3nccs3)c2c1` [Example 117, 5-(isopropylsulfonyl)-7-(2-pyridin-2-ylethoxy)-N-1,3-thiazol-2-yl-1H-indazole-3-amine], the melting point was 190 to 191 °C. In data set [1], this molecule had an Emax at 10 µM of 211%.

On to `Clc1cccnc1-c1ccc2[nH]nc(Nc3ncc(CN4CCOCC4)s3)c2c1` [Example 34, 5-(3-chloropyridin-2-yl)-N-[5-(morpholin-4-ylmethyl)-1,3-thiazol-2-yl]-1H-indazole-3-amine], for which the melting point worked out at 217 °C. The molecule further yielded an Emax at 10 µM in data set [1] of 186%.

As for `CCNC(=O)Nc1n[nH]c2ccc(-c3ncccc3Cl)cc12` [Example 101, N-[5-(3-chloropyridin-2-yl)-1H-indazol-3-yl]-N′-ethylurea], the melting point lay within 178 to 180 °C. Moreover, the maximal response (Emax) at 10 µM in data set [1] is 202%.

`CCn1nc(Nc2nccs2)c2cc(-c3ncccc3Cl)ccc21` [Example 30, 5-(3-chloropyridin-2-yl)-1-ethyl-N-1,3-thiazol-2-yl-1H-indazole-3-amine] registered an Emax at 10 µM in data set [1] of 129%.

Molecule `O=S(=O)(c1ccc2[nH]nc(Nc3nccs3)c2c1)N1CCCC1` [Example 20, 5-(pyrrolidin-1-ylsulfonyl)-N-1,3-thiazol-2-yl-1H-indazole-3-amine] had an Emax at 10 µM in data set [1] of 156%.

In the case of `Cn1ccc(Nc2n[nH]c3ccc(-c4ncccc4Cl)cc23)n1` [Example 63, 5-(3-chloropyridin-2-yl)-N-(1-methyl-1H-pyrazol-3-yl)-1H-indazole-3-amine], the melting point was in the range of 190 to 191 °C. Further, the maximal effect (Emax) at 10 µM in data set [1] is 175%.

Broadly, the melting point is the temperature of the solid-liquid transition. One may read the Emax as the maximal effect, on the per cent scale that the assay sets.
